These compounds were tested against T1, P2X7 receptor (Homo sapiens, UniProt Q99572) (assay: Ca++ flux assay (FLIPR) in P2X7-HEK-293 cell line stably expressing the full length P2X7 receptor, Bz-ATP activation). Settings: P2X7-HEK-293 cells; agonist Bz-ATP; fluorescence as total area over 90 seconds; read-out: P2X7 Ca Flux hu IC50.
T1 construct: stably expressing the full length P2X7 receptor; expressed in transfected cells
T1 sequence (Q99572 1-595): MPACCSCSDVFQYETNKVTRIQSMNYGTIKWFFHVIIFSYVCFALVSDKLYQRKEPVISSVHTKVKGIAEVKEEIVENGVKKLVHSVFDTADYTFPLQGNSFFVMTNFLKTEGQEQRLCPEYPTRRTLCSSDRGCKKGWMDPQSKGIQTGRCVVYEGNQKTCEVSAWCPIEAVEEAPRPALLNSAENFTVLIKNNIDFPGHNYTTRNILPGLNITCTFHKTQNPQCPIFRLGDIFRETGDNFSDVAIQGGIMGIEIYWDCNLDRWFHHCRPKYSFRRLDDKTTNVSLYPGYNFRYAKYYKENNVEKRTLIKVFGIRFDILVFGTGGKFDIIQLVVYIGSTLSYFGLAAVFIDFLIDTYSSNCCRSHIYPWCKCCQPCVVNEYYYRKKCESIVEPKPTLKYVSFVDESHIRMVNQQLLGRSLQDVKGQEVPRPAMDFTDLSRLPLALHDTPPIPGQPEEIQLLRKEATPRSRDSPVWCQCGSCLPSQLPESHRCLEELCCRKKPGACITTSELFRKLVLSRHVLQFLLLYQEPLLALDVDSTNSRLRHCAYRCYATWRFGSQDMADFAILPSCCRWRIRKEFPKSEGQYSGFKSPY
Assay type: cell-based
Procedure, shortened: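 HEK-293 cells stably expressing full-length P2X7 were loaded with Ca++-sensitive dye for 1 h, with compound added during loading. Cells were stimulated with Bz-ATP on FLIPR. Fluorescence was integrated as total area over 90 s, and IC50 was taken as 50% inhibition of the maximal Ca++ response.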

Row | Compound | IC50 [nM]
1 | Cc1c(Cl)cccc1-n1ccn2c(SCC(=O)OC(C)(C)C)nnc2c1=O [Compound 107, tert-butyl 2-(7-(3-chloro-2-methylphenyl)-8-oxo-7,8-dihydro-[1,2,4]triazolo[4,3-a]pyrazin-3-ylthio)acetate] | 1820
2 | Cc1c(Cl)cccc1-n1ccn2c(SCCc3ccccc3)nnc2c1=O [Compound 112, 7-(3-chloro-2-methylphenyl)-3-(phenethylthio)-[1,2,4]triazolo[4,3-a]pyrazin-8(7H)-one] | 660
3 | COc1ccc(CSc2nnc3c(=O)n(-c4cccc(Cl)c4C)ccn23)cc1 [Compound 113, 7-(3-chloro-2-methylphenyl)-3-(4-methoxybenzylthio)-[1,2,4]triazolo[4,3-a]pyrazin-8(7H)-one] | 5650
4 | Cc1c(Cl)cccc1-n1ccn2c(SCc3ccc(F)c(F)c3)nnc2c1=O [Compound 115, 7-(3-chloro-2-methylphenyl)-3-(3,4-difluorobenzylthio)-[1,2,4]triazolo[4,3-a]pyrazin-8(7H)-one] | 893
5 | Cc1c(-n2ccn3c(S(=O)(=O)Cc4ccccc4-c4ccc(Cl)cc4)nnc3c2=O)cccc1C(F)(F)F [Compound 118, 3-((4′-chlorobiphenyl-2-yl)methylsulfonyl)-7-(2-methyl-3-(trifluoromethyl)phenyl)-[1,2,4]triazolo[4,3-a]pyrazin-8(7H)-one] | 6.9
6 | Cc1c(-n2ccn3c(S(=O)(=O)Cc4ccsc4)nnc3c2=O)cccc1C(F)(F)F [Compound 123, 7-(2-methyl-3-(trifluoromethyl)phenyl)-3-(thiophen-3-ylmethylsulfonyl)-[1,2,4]triazolo[4,3-a]pyrazin-8(7H)-one] | 12.4
7 | Cc1c(-n2ccn3c(S(=O)(=O)Cc4cccc(F)c4Cl)nnc3c2=O)cccc1C(F)(F)F [Compound 124, 3-(2-chloro-3-fluorobenzylsulfonyl)-7-(2-methyl-3-(trifluoromethyl)phenyl)-[1,2,4]triazolo[4,3-a]pyrazin-8(7H)-one] | 14.6
8 | Cc1c(-n2ccn3c(S(=O)(=O)Cc4ccccc4-c4ccccc4)nnc3c2=O)cccc1C(F)(F)F [Compound 126] | 15.9
9 | O=c1c2nnc(S(=O)(=O)Cc3ccccc3)n2ccn1-c1cccc(C(F)(F)F)c1Cl [Compound 127, 3-(benzylsulfonyl)-7-(2-chloro-3-(trifluoromethyl)phenyl)-[1,2,4]triazolo[4,3-a]pyrazin-8(7H)-one] | 16.3
10 | Cc1c(Cl)cccc1-n1ccn2c(S(=O)(=O)Cc3ccccc3Br)nnc2c1=O [Compound 128, 3-(2-bromobenzylsulfonyl)-7-(3-chloro-2-methylphenyl)-[1,2,4]triazolo[4,3-a]pyrazin-8(7H)-one] | 16.9
11 | Cc1c(Cl)cccc1-n1ccn2c(S(=O)(=O)Cc3cccc(F)c3Cl)nnc2c1=O [Compound 130, 7-(3-chloro-2-methylphenyl)-3-(2-chloro-3-fluorobenzylsulfonyl)-[1,2,4]triazolo[4,3-a]pyrazin-8(7H)-one] | 17.3
12 | Cc1c(-n2ccn3c(S(=O)(=O)Cc4ccccc4Br)nnc3c2=O)cccc1C(F)(F)F [Compound 131, 3-(2-bromobenzylsulfonyl)-7-(2-methyl-3-(trifluoromethyl)phenyl)-[1,2,4]triazolo[4,3-a]pyrazin-8(7H)-one] | 17.7
13 | Cc1c(Cl)cccc1-n1ccn2c(S(=O)(=O)Cc3ccccc3C(C)(C)C)nnc2c1=O [Compound 136, 3-(2-tert-butylbenzylsulfonyl)-7-(3-chloro-2-methylphenyl)-[1,2,4]triazolo[4,3-a]pyrazin-8(7H)-one] | 26.9
14 | Cc1c(-n2ccn3c(S(=O)(=O)Cc4ccccc4-c4ccc(F)cc4)nnc3c2=O)cccc1C(F)(F)F [Compound 138, 3-((4′-fluorobiphenyl-2-yl)methylsulfonyl)-7-(2-methyl-3-(trifluoromethyl)phenyl)-[1,2,4]triazolo[4,3-a]pyrazin-8(7H)-one] | 30.8

Second part, the compound after the results:

Row | IC50 [nM] | Compound
15 | 507 | COc1ccccc1C(=O)CSc1nnc2c(=O)n(-c3cccc(Cl)c3C)ccn12 [Compound 108, 7-(3-chloro-2-methylphenyl)-3-(2-(2-methoxyphenyl)-2-oxoethylthio)-[1,2,4]triazolo[4,3-a]pyrazin-8(7H)-one]
16 | 448 | Cc1c(Cl)cccc1-n1ccn2c(SCC(=O)c3ccccc3C(F)(F)F)nnc2c1=O [Compound 109, 7-(3-chloro-2-methylphenyl)-3-(2-oxo-2-(2-(trifluoromethyl)phenyl)ethylthio)-[1,2,4]-triazolo[4,3-a]pyrazin-8(7H)-one]
17 | 544 | COc1ccccc1CSc1nnc2c(=O)n(-c3cccc(Cl)c3C)ccn12 [Compound 110, 7-(3-chloro-2-methylphenyl)-3-(2-methoxybenzylthio)-[1,2,4]triazolo[4,3-a]pyrazin-8(7H)-one]
18 | 515 | Cc1c(Cl)cccc1-n1ccn2c(SCc3ccccc3C(F)(F)F)nnc2c1=O [Compound 111, 7-(3-chloro-2-methylphenyl)-3-(2-(trifluoromethyl)benzylthio)-[1,2,4]triazolo[4,3-a]pyrazin-8(7H)-one]
19 | 697 | Cc1c(Cl)cccc1-n1ccn2c(SCc3cc(F)cc(F)c3)nnc2c1=O [Compound 114, 7-(3-chloro-2-methylphenyl)-3-(3,5-difluorobenzylthio)-[1,2,4]triazolo[4,3-a]pyrazin-8(7H)-one]
20 | 29 | Cc1c(-n2ccn3c(S(=O)(=O)Cc4ccccc4)nnc3c2=O)cccc1C(F)(F)F [Compound 116]
21 | 76.5 | Cc1c(-n2ccn3c([S+]([O-])Cc4ccccc4)nnc3c2=O)cccc1C(F)(F)F (centres unmarked) [Compound 117, 3-(benzylsulfinyl)-7-(2-methyl-3-(trifluoromethyl)phenyl)-[1,2,4]triazolo[4,3-a]pyrazin-8(7H)-one]
22 | 11 | O=c1c2nnc(S(=O)(=O)Cc3ccccc3Cl)n2ccn1-c1cccc(C(F)(F)F)c1Cl [Compound 119, 7-(2-chloro-3-(trifluoromethyl)phenyl)-3-(2-chlorobenzylsulfonyl)-[1,2,4]triazolo[4,3-a]pyrazin-8(7H)-one]
23 | 11.8 | Cc1c(-n2ccn3c(S(=O)(=O)Cc4ccccc4F)nnc3c2=O)cccc1C(F)(F)F [Compound 120, 3-(2-fluorobenzylsulfonyl)-7-(2-methyl-3-(trifluoromethyl)phenyl)-[1,2,4]triazolo[4,3-a]pyrazin-8(7H)-one]
24 | 11.9 | Cc1c(-n2ccn3c(S(=O)(=O)Cc4ccccc4Cl)nnc3c2=O)cccc1C(F)(F)F [Compound 121, 3-(2-chlorobenzylsulfonyl)-7-(2-methyl-3-(trifluoromethyl)phenyl)-[1,2,4]triazolo[4,3-a]pyrazin-8(7H)-one]
25 | 12.3 | Cc1c(-n2ccn3c(S(=O)(=O)Cc4cccs4)nnc3c2=O)cccc1C(F)(F)F [Compound 122, 7-(2-methyl-3-(trifluoromethyl)phenyl)-3-(thiophen-2-ylmethylsulfonyl)-[1,2,4]triazolo[4,3-a]pyrazin-8(7H)-one]
26 | 15.5 | Cc1c(-n2ccn3c(S(=O)(=O)Cc4ccsc4Br)nnc3c2=O)cccc1C(F)(F)F [Compound 125, 3-((2-bromothiophen-3-yl)methylsulfonyl)-7-(2-methyl-3-(trifluoromethyl)phenyl)-[1,2,4]triazolo[4,3-a]pyrazin-8(7H)-one]
27 | 17 | Cc1c(-n2ccn3c(S(=O)(=O)Cc4ccccc4C(C)(C)C)nnc3c2=O)cccc1C(F)(F)F [Compound 129, 3-(2-tert-butylbenzylsulfonyl)-7-(2-methyl-3-(trifluoromethyl)phenyl)-[1,2,4]triazolo[4,3-a]pyrazin-8(7H)-one]
28 | 17.9 | Cc1c(-n2ccn3c(S(=O)(=O)Cc4ccc(Cl)s4)nnc3c2=O)cccc1C(F)(F)F [Compound 132, 3-((5-chlorothiophen-2-yl)methylsulfonyl)-7-(2-methyl-3-(trifluoromethyl)phenyl)-[1,2,4]triazolo[4,3-a]pyrazin-8(7H)-one]
29 | 21.4 | Cc1c(-n2ccn3c(S(=O)(=O)Cc4ccccc4I)nnc3c2=O)cccc1C(F)(F)F [Compound 133, 3-(2-iodobenzylsulfonyl)-7-(2-methyl-3-(trifluoromethyl)phenyl)-[1,2,4]triazolo[4,3-a]pyrazin-8(7H)-one]
30 | 23.2 | Cc1c(Cl)cccc1-n1ccn2c(S(=O)(=O)Cc3ccccc3Cl)nnc2c1=O [Compound 134, 7-(3-chloro-2-methylphenyl)-3-(2-chlorobenzylsulfonyl)-[1,2,4]triazolo[4,3-a]pyrazin-8(7H)-one]
31 | 23.3 | [2H]c1c([2H])c([2H])c(CS(=O)(=O)c2nnc3c(=O)n(-c4cccc(C(F)(F)F)c4C)ccn23)c([2H])c1[2H] [Compound 135, deuterated-7-[2-methyl-3-(trifluoromethyl)phenyl]-3-[(phenyl-(d5)-methyl)sulfonyl]-1,2,4-triazolo[4,3-a]pyrazin-8(7H)-one]
32 | 30.4 | Cc1cccc(-c2ccccc2CS(=O)(=O)c2nnc3c(=O)n(-c4cccc(C(F)(F)F)c4C)ccn23)c1 [Compound 137]

From US20130196986A1 (priority 2010, published 2013)
